The values that follow are results of earlier work, collected in patent US20120289565A1, “COMBINATIONS OF TOLTERODINE AND SALIVARY STIMULANTS FOR THE TREATMENT OF OVERACTIVE BLADDER” (TheraVida, Inc., priority 2011, published 2012).

For the series the following is noted: 5 mg of pilocarpine.

As to `CC[C@@H]1C(=O)OC[C@@H]1Cc1cncn1C` [pilocarpine], the “time of maximum saliva output after administration” value is on record as “about 30 minutes”.
